Measurements from patent US8841325B2, “Immunomodulatory compounds for the restoration of vitamin D sensitivity in vitamin D resistant tumor cells” (Celgene Corporation, priority 2009, dated 2014).

Columns and labels:
Format in all cases: cell-based
HBL-100 cells = assay: BCL-2 expression by immunoblotting, HBL-100; settings: 1 μM lenalidomide and 100 nM 1,25-D3 alone or in combination, 6 days, FIG. 15
Method: It has been shown in this paper that BCL-2 inhibition of expression seems to be a key event for the restoration of a sensitive vitamin D sensitive phenotype in MDA-MB-231. […] Cells were also treated with 0.1% DMSO as a control. Whole cells extracts were prepared and analysed by immuoblotting BCL-2 antibody. β-actin was used as a loading control.
More particularly, FIG. 15 illustrates the effects of co-treatment lenalidomide/1, 25-D3 on BCL-2 expression in MCF-7VDR and HBL-100 cells. MCF-7/VDR and HBL-100 cells were treated for up to 6 days with 1 μM lenalidomide and 100 nM 1, 25-D3 alone or in combination. Cells were also treated with 0.1% DMSO a control. Whole proteins were extracted and probes for BCL-2. β-actin was used as a loading control. Representative blots for the three experiments are shown.

MCF-7 cells = assay: Cell growth by Sulphorhodamine B (SRB) assay, MCF-7; settings: for effect on cell growth: single agent, Thalidomide 0.01-100 μM, CC-4047 and lenalidomide 0.001-10 μM, FIG. 6B
Method: (§1) Cells were seeded in 24 wells plates at a density of 10^4 cells per well and allowed to adhere for 24 hours. […] Each treatment was carried out for up to 7 days, but renewed every 2 days. Cell growth was then determined by Sulphorhodamine B (SRB) assay, measuring absorbance at 550 nm.
(§2) After 6 days treatment, cells were seeded in 24 well plates at a density of 1×10^4 cells/well. After 24 h cells were treated with reagents or vehicle for up to six days. Cells were treated for up to 6 days with log doses of Thalidomide (0.1 μM up to 100 μM), pomalidomide and lenalidomide (0 μM up to 10 μM). At the end of each experiment, cells were fixed to the bottom of the well by addition of ice-cold 50% w/v trichloroacetic acid (TCA) to give a final concentration of 10% TCA. Plates were incubated at 4° C. for 30 minutes and then washed with distilled water. Plates were allowed to air-dry at room temperature before staining with 0.4% w/v SRB in 1% v/v acetic acid and incubated for 15 minutes on a shaker. The plates were then extensively washed with 1% acetic acid to remove unbound dye and were again allowed to air-dry at room temperature. Incorporated dye was solubilised with 200 μl […] Tris base. 100 μl aliquots were transferred to a 96 well plate and absorbance at 550 nm was determined

MDA-MB-231 cells [1] = assay: Cell growth by Sulphorhodamine B (SRB) assay, MDA-MB-231
Method: (§3) Cells were seeded in 24 wells plates at a density of 10^4 cells per well and allowed to adhere for 24 hours. To determine the combination effects of the drugs, cells were treated with 100 nM 1,25 D3 and 10 nM 1-oxo-2-(2,6-dioxopiperidin-3-yl)-4-aminoisoindoline or 1,3-dioxo-2-(2,6-dioxopiperidin-3-3-yl)-4-aminoisoindoline. Each treatment was carried out for up to 7 days, but renewed every 2 days. Cell growth was then determined by Sulphorhodamine B (SRB) assay, measuring absorbance at 550 nm.
as §3, with “per wekk” for “per well”, “and varying doses of” for “and 10 nM”, “or 1,3-dioxo-2-(2,6-dioxopiperidin-3-yl)-4-aminoisoindoline.” for “or 1,3-dioxo-2-(2,6-dioxopiperidin-3-3-yl)-4-aminoisoindoline.”
as §2

MDA-MB-231 cells [2] = assay: Cell viability by neutral red assay, MDA-MB-231; settings: for effect on cell viability: up to 6 days
Method: Cells were seeded in 24 wells plates at a density of 10^4 cells per well and allowed to adhere for 24 hours. […] The drug was renewed every 2 days. Cell viability was then determined by neutral red assay, measuring absorbance at 550 nm.
After 6 days treatment, cells were seeded into 24 well plates at a density of 1×10^4 cells/wells. After 24 h, cells were treated with reagents or vehicle for up to six days. At the end of the incubation period, medium was removed and cells were incubated with neutral red solution (40 μg/ml in phenol red and serum free DMEM) for 2 h at 37° C. After removal of the neutral red solution, wells were rinsed once with 1 ml 4% formal saline containing 0.5% CaCl2. Plates were inverted on paper towel to drain and 200 μl of elution fluid (1% acetic acid in 50% ethanol) was added. Following incubation at room temperature for 30 min with gentle shaking, absorbance at 550 nm was determined
To accomplish this, cells were treated for up to 6 days with different concentrations of a BCL-2 inhibitor, ABT-263 ([…]). Non-treated cells were used as a control. After 6 days of treatment, cell viability was measured by neutral red assay (FIG. 16). In the three cell lines, BCL-2 inhibition leads to cell death. The IC50 is almost equivalent in all cell lines (1 μM+/−0.2 μM).
More particularly, FIG. 16 illustrates the effects of BCL-2 inhibition on MCF-7VD^R and HBL-100 viability. MDA-MB-231, MCF-7/VD^R and HBL-100 cells were treated for up to 6 days with different concentrations of ABT-263 (0.2 up to 20 μM). Non-treated cells were used as a control. After 6 days of treatment, cell viability was measured by neutral red assay. Results are mean of three independent experiments (each made in quadruplicate).

MCF-12A cells = assay: Cell growth by Sulphorhodamine B (SRB) assay, MCF-12A; settings: for effect on cell growth: single agent, Thalidomide 0.01-100 μM, CC-4047 and lenalidomide 0.001-10 μM, FIG. 6B
Method: as §1, §2

[3] = 100 nM 1,25-D3 alone, up to 6 days, FIG. 7B
[4] = 1,25 D3 alone, read-out: dose giving IC50 inhibition
[5] = up to 6 days, listed as lenalidomide

SMILES | effects on BCL-2 expression (HBL-100 cells) | inhibition of growth (MCF-7 cells; [3]) [%] | IC50 (MCF-7 cells; [4]) [nM] | effect on cell growth (MDA-MB-231 cells [1]; 100 nM 1,25-D3 or 1 μM IMiD alone, up to 6 days) | effect on cell viability (MDA-MB-231 cells [2]; 100 nM 1,25-D3 or 1 μM IMiD alone) | sensitivity of cell viability to vitamin D agent treatment (MDA-MB-231 cells [2]; 1,25 D3 0-100 nM, 7 days, FIG. 1) | inhibition of growth (MCF-12A cells; [3]) [%] | IC50 (MCF-12A cells; [4]) [nM] | effect on cell growth (MCF-7 cells; up to 6 days) | effect on cell growth (MCF-7 cells; [5]) | inhibition at 10 µM (MDA-MB-231 cells [1]; Homo sapiens, MDA-MB-231, 144 h, single agent, 10 μM lenalidomide (highest dose), up to 6 days) [%] | minimal concentration giving statistically significant inhibition of growth (MDA-MB-231 cells [1]; in the presence of 100 nM 1,25 D3, up to 7 days, FIG. 3) [µM] | inhibition of growth (MDA-MB-231 cells [1]; single agent, 10 μM lenalidomide (highest dose), up to 6 days) [%] | effect on cell viability (MDA-MB-231 cells [2]; single agent, Thalidomide 0.01-100 μM, CC-4047 and lenalidomide 0.001-10 μM, FIG. 6A) | effect on cell growth (MCF-12A cells; up to 6 days) | effect on cell growth (MCF-12A cells; [5])
C=C1/C(=C\C=C2/CCC[C@]3(C)[C@@H]([C@H](C)CCCC(C)(C)O)CC[C@@H]23)C[C@@H](O)C[C@@H]1O [1,25-D3, 1α,25-dihydroxyvitamin D3] | no effects | 30 | 100 | no effect | no effect | resistant | 55 | 100 |  |  |  |  |  |  |  | 
Nc1cccc2c1CN(C1CCC(=O)NC1=O)C2=O (centres unmarked) [Lenalidomide, 1-oxo-2-(2,6-dioxopiperidin-3-yl)-4-aminoisoindoline] | no effects |  |  |  |  |  |  |  | do not Affect | no effect | 28 | 1 | 20 | do not Affect | do not Affect | no effect
